For experiment [1], the target named is T1, human cloned CHRM4 receptor (Homo sapiens, UniProt P08173).
T1 construct: expressed in transfected cells; host or cells: CHO-K1 (M4_CHO)
T1 sequence (P08173 1-479): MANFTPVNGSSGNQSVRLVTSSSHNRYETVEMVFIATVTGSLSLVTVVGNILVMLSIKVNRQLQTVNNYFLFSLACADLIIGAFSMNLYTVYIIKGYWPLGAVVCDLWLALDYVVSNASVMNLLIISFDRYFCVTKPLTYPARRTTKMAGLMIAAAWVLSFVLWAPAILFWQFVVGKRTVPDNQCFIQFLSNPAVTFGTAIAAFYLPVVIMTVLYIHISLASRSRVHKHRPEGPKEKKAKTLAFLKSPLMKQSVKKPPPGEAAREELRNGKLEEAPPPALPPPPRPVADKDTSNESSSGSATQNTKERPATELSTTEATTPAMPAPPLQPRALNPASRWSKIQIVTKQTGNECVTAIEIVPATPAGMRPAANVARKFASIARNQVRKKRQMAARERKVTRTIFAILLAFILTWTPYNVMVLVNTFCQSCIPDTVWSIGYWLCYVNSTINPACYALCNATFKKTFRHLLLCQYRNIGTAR
The experiment in a line: CHRM4 Ca++ Flux Assay (M4_CHO cells, agonist mode). In kind it is cell-based. As to conditions: for Emax: Percent Activity (PA), read-out: M4 FDSS PA %; for EC50: geometric mean if tested more than once, read-out: M4 FDSS EC50. A digest of the protocol: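 Agonist-mode calcium flux in an M4-expressing CHO-K1 line: compounds were dosed at 11 points in triplicate and fluorescence was tracked for 3 min. Cells were preloaded with Ca++ dye and kept in −Ca/−Mg HBSS with 20 μM ATP for 60 min. Efficacy is scaled to carbachol EC100; EC50s come from four-parameter regression, geometric mean across runs.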

Experiment [2] addresses T2, Cloned human M1 receptor (CHRM1) (Homo sapiens, UniProt P11229).
T2 construct: expressed in transfected cells; host or cells: HEK293
T2 sequence (P11229 1-460): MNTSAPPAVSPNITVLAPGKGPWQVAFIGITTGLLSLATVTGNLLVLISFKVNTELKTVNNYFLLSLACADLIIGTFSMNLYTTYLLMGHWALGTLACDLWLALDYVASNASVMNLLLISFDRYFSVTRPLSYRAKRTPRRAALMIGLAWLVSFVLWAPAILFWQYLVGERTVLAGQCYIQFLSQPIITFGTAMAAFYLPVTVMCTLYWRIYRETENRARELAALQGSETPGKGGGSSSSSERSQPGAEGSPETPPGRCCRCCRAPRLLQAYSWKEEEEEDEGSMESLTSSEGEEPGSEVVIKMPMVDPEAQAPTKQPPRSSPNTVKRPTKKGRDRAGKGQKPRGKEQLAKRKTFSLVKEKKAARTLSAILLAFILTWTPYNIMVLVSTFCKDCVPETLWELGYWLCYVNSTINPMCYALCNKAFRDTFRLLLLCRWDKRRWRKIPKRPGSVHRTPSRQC
Nature of the experiment: CHRM1 Ca++ Flux Assay (HEK293 M1 cells, agonist mode). It counts as cell-based. As to conditions: for Emax: Percent Activity (PA), read-out: M1 FDSS PA %; for EC50: geometric mean if tested more than once, read-out: M1 FDSS EC50. Put shortly: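 In agonist mode, compound-induced intracellular Ca++ mobilization was recorded for 3 min by fluorescent imager. The cells were HEK293 stably expressing cloned human CHRM1, in Ca/Mg-free HBSS with 20 mM HEPES. Triplicate 11-point dose-responses were fitted by four-parameter regression and normalized to the carbachol EC100 response.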

In general, EC50 refers to the concentration that produces a half-maximal response. `Cc1nnc(COc2ccc(F)cc2C2CCN([C@@H]3COC4(C3)CN(c3nnco3)C4)CC2)s1` [Example 2E, (S)-7-(4-(5-fluoro-2-((5-methyl-1,3,4-thiadiazol-2-yl)methoxy)phenyl)piperidin-1-yl)-2-(1,3,4-oxadiazol-2-yl)-5-oxa-2-azaspiro[3.4]octane]: the results for the Emax in experiment [1] and in experiment [2] were 85% and 112%, respectively. Further, the 50% effective concentration (EC50) in experiment [1] amounted to 1 nM; in experiment [2] it was 116 nM.
On the same counts, the results for `Fc1ccc(OC[C@H]2CCOC2)c(C2CCN([C@@H]3COC4(C3)CN(c3nnco3)C4)CC2)c1` [Example 1I, (S)-7-(4-(5-fluoro-2-(((S)-tetrahydrofuran-3-yl)methoxy)phenyl)piperidin-1-yl)-2-(1,3,4-oxadiazol-2-yl)-5-oxa-2-azaspiro[3.4]octane] are 69%, 54%, 35 nM and 980 nM.
On the same counts, the results for `Fc1ccc(OC2CCOCC2)c(C2CCN([C@@H]3COC4(C3)CN(c3ncon3)C4)CC2)c1` [Example 6A, (S)-7-(4-(5-fluoro-2-((tetrahydro-2H-pyran-4-yl)oxy)phenyl)piperidin-1-yl)-2-(1,2,4-oxadiazol-3-yl)-5-oxa-2-azaspiro[3.4]octane] are 74%, 53%, 12 nM and 887 nM.
On the same counts, the results for `CC1(COc2ccc(F)cc2C2CCN([C@@H]3COC4(C3)CN(c3nnco3)C4)CC2)COC1` [Example 2K, (S)-7-(4-(5-fluoro-2-((3-methyloxetan-3-yl)methoxy)phenyl)piperidin-1-yl)-2-(1,3,4-oxadiazol-2-yl)-5-oxa-2-azaspiro[3.4]octane] are 82%, 97%, 18 nM and 1360 nM.
As for `COc1cc(F)ccc1C1CCN([C@@H]2COC3(C2)CN(c2nnco2)C3)CC1` [Example 1S, (S)-7-(4-(4-fluoro-2-methoxyphenyl)piperidin-1-yl)-2-(1,3,4-oxadiazol-2-yl)-5-oxa-2-azaspiro[3.4]octane], in experiment [1], the Emax is 68% and the half-maximal effective concentration (EC50) is 79 nM. In addition, in experiment [2], the Emax was determined as 71% and the EC50 was determined as 634 nM.

The values are drawn from patent US11485742B2, “2-azaspiro[3.4]octane derivatives as M4 agonists” (NOVARTIS AG, priority 2019, dated 2022).
